According to PMC7170309, “Imidazopyridine-fused [1,3]diazepinones: modulations of positions 2 to 4 and their impacts on the anti-melanoma activity” (Journal of Enzyme Inhibition and Medicinal Chemistry, 2020):

Experiments:
[1] = test system: M14; assay: NCI-60 SRB assay, M14 (Melanoma); type: cell-based, human; details: 10 µM, 48 h; for G%: growth vs untreated control
Procedure: (§1) Primary anticancer assay was performed on a panel of 60 human cancer cell lines derived from nine neoplastic diseases, in accordance with the protocol of the Drug Evaluation Branch, National Cancer Institute, Bethesda, Maryland, USA[22]. Cells were incubated with tested compounds at 10 µM for 48 h. The growth percentage was evaluated spectrophotometrically using a protein binding dye, SRB. Results for each tested compound were reported as the percent of growth of treated cells when compared to untreated control cells.
(§2) To better compare the activity profile of these two series of compounds, compounds 5 and 8 were selected and then evaluated towards a panel of sixty cancer cell lines corresponding to nine different cancer types, i.e. leukaemia, melanoma, as well as lung, colon, central nervous system, ovarian, renal, prostate and breast cancers (NCI evaluation). Indeed, it is now well established that the growth inhibitory patterns of anticancer drugs against the NCI-60 cell line panel correlated well with their modes of action. For example, compounds that bind to tubulin have similar growth inhibition patterns regardless of which site on tubulin they bind[30]. […] Compounds were tested using the sulforhodamine B (SRB) assay that provides a direct cell density index. The amount of dye incorporated by the cells increases with the increase of the total protein biomass. Cells were incubated for 48 h with compounds at 10 µM concentration, then cell growth was evaluated spectrophotometrically and presented as the percent of untreated control cells. Values of the most sensitive cell lines were compared to those obtained with JMV5038 (Figure 4, for all data see SI).

[2] = test system: EKVX; assay: NCI-60 SRB assay, EKVX (NSCLC); type: cell-based, human; details: 10 µM, 48 h
Procedure: as §1, §2

[3] = test system: HCC-2998; assay: NCI-60 SRB assay, HCC-2998 (Colon Cancer); type: cell-based, human; details: 10 µM, 48 h; for G%: growth vs untreated control;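 as to Mean G% - G%: mean growth across the NCI-60 panel minus this line's growth with positive meaning more sensitive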
Procedure: as §1, §2

[4] = test system: SNB-19; assay: NCI-60 SRB assay, SNB-19 (CNS Cancer); type: cell-based, human; details: 10 µM, 48 h; for G%: growth vs untreated control
Procedure: as §1, §2

[5] = test system: TK-10; assay: NCI-60 SRB assay, TK-10 (Renal Cancer); type: cell-based, human; details: 10 µM, 48 h; for G%: growth vs untreated control;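 as to Mean G% - G%: mean growth across the NCI-60 panel minus this line's growth with positive meaning more sensitive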
Procedure: as §1, §2

[6] = test system: HOP-92; assay: NCI-60 SRB assay, HOP-92 (NSCLC); type: cell-based, human; details: 10 µM, 48 h; for G%: growth vs untreated control;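 as to Mean G% - G%: mean growth across the NCI-60 panel minus this line's growth with positive meaning more sensitive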
Procedure: as §1, §2

[7] = test system: HCT-15; assay: NCI-60 SRB assay, HCT-15 (Colon Cancer); type: cell-based, human; details: 10 µM, 48 h; for G%: growth vs untreated control
Procedure: as §1, §2

[8] = test system: SK-MEL-5; assay: NCI-60 SRB assay, SK-MEL-5 (Melanoma); type: cell-based, human; details: 10 µM, 48 h; for G%: growth vs untreated control
Procedure: as §1, §2

[9] = test system: A549/ATCC; assay: NCI-60 SRB assay, A549/ATCC (NSCLC); type: cell-based, human; details: 10 µM, 48 h; for G%: growth vs untreated control
Procedure: as §1, §2

[10] = test system: BT-549; assay: NCI-60 SRB assay, BT-549 (Breast Cancer); type: cell-based, human; details: 10 µM, 48 h; for G%: growth vs untreated control
Procedure: as §1, §2

[11] = test system: A375 melanoma cells; assay: Neutral red uptake (NRU) viability assay, A375; type: cell-based, human; details: Homo sapiens, A-375, 72 h, mean ± SD of three experiments
Procedure: Melanoma human cancer cell line (A375 and MDA-MB-435) were obtained from ATCC. The NIH-3T3 cell line was generously gifted by the ANSM (French National Agency for Medicines and Health Products Safety, Vendargues, France). Cells were cultured in Dulbecco’s Modified Eagle Medium (DMEM, Sigma Aldrich) supplemented with 10% heat-inactivated foetal calf serum (FCS, Gibco), 2 mM glutamax (Gibco), 100 IU/mL penicillin G sodium (Sigma Aldrich), 100 lU/mL streptomycin sulphate (Sigma Aldrich). The cells were allowed to grow at 37 °C in a fully humidified atmosphere containing 5% CO2.
A viability assay was used to evaluate the cytotoxic activity on A375 and MDA-MB-435 melanoma cells as previously described. According to OCDE/ICCVAM guidance n°129, NRU assay was also used to evaluate the toxicity on the non-cancerous NIH-3T3 cells. Cells were seeded at a final concentration of 2000 cells/well (A375), 3000 cells/well (NIH-3T3) or 7500 cells/well (MDA-MB-435) in 96-well microtiter plates for 24 h. Then, cells were exposed to two negative controls (1% DMSO in culture medium (vehicle) and culture medium alone), or to different compounds freshly dissolved in DMSO, in a range of concentration from 0.01 to 40 µM (six wells per concentration). After 72 h of incubation, cells were stained with new medium containing 50 µg/mL of neutral red (3-amino-7-dimethylamino-2-methylphenazine hydrochloride, Sigma Aldrich) at 37 °C for 2 h. The neutral red medium solution was then removed and the wells were washed with PBS. Finally, 100 µL of solution containing ethanol, acetic acid and water (50/1/49 v/v/v respectively) were added into the wells and the absorbance was measured at 540 nm using the microplate reader 352 Multiscan MS (Labsystems). Cell survival rates were normalised to the absorbance values of untreated control cells. IC50 was obtained using a logistic regression model on Graphpad Prism 5.0 software. Results are given as the mean ± standard deviation (SD) of three independent experiments. Statistical analysis was performed using the Student’s t-test.

[12] = test system: COLO 205; assay: NCI-60 SRB assay, COLO 205 (Colon Cancer); type: cell-based, human; details: 10 µM, 48 h; for G%: growth vs untreated control
Procedure: as §1, §2

[13] = test system: UO-31; assay: NCI-60 SRB assay, UO-31 (Renal Cancer); type: cell-based, human; details: 10 µM, 48 h; for G%: growth vs untreated control
Procedure: as §1, §2

[14] = test system: NCI-H322M; assay: NCI-60 SRB assay, NCI-H322M (NSCLC); type: cell-based, human; details: 10 µM, 48 h; for G%: growth vs untreated control
Procedure: as §1, §2

[15] = test system: MDA-MB-435; assay: NCI-60 SRB assay, MDA-MB-435 (Melanoma); type: cell-based, human; details: MDA-MB-435, 10 µM, 48 h, SRB; for G%: growth vs untreated control;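 as to Mean G% - G%: mean growth across the NCI-60 panel minus this line's growth with positive meaning more sensitive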
Procedure: as §1, §2

[16] = test system: NCI-H226; assay: NCI-60 SRB assay, NCI-H226 (NSCLC); type: cell-based, human; details: 10 µM, 48 h; for G%: growth vs untreated control
Procedure: as §1, §2

[17] = test system: HOP-62; assay: NCI-60 SRB assay, HOP-62 (NSCLC); type: cell-based, human; details: 10 µM, 48 h; for G%: growth vs untreated control
Procedure: as §1, §2

[18] = test system: MDA-MB-468; assay: NCI-60 SRB assay, MDA-MB-468 (Breast Cancer); type: cell-based, human; details: 10 µM, 48 h; for G%: growth vs untreated control
Procedure: as §1, §2

[19] = test system: NCI-60 cancer cell line panel; assay: NCI-60 SRB assay, whole panel; type: cell-based, human; details: 10 µM, 48 h
Procedure: as §1, §2

[20] = test system: HT29; assay: NCI-60 SRB assay, HT29 (Colon Cancer); type: cell-based, human; details: 10 µM, 48 h; for G%: growth vs untreated control
Procedure: as §1, §2

[21] = test system: LOX IMVI; assay: NCI-60 SRB assay, LOX IMVI (Melanoma); type: cell-based, human; details: 10 µM, 48 h; for G%: growth vs untreated control
Procedure: as §1, §2

[22] = test system: MCF7; assay: NCI-60 SRB assay, MCF7 (Breast Cancer); type: cell-based, human; details: 10 µM, 48 h; for G%: growth vs untreated control
Procedure: as §1, §2

[23] = test system: RXF 393; assay: NCI-60 SRB assay, RXF 393 (Renal Cancer); type: cell-based, human; details: 10 µM, 48 h
Procedure: as §1, §2

Compound: C[C@@H]1NC(c2csc3ccccc23)=Nc2nc3ccccn3c2C1=O [Compound 8, (4S)-4-methyl-2-benzothiophen-3-yl-3,4-dihydro-5H-pyrido[1’,2’:1,2]imidazo[4,5-d][1,3]diazepin-5-one]
- Mean G% - G% [1]: -16,75%
- G% [1]: 91,62%
- Mean G% - G% [2]: 0,63%
- G% ([2]; growth vs untreated control): 74,24%
- Mean G% - G% [3]: -23,19%
- G% [3]: 98,06%
- Mean G% - G% [4]: -4,95%
- G% [4]: 79,82%
- Mean G% - G% [5]: -36,86%
- G% [5]: 111,73%
- Mean G% - G% [6]: 34,61%
- G% [6]: 40,26%
- Mean G% - G% [7]: -1,17%
- G% [7]: 76,04%
- melting point: 135 to 137 °C
- Mean G% - G% [8]: 12,92%
- G% [8]: 61,95%
- Mean G% - G% [9]: 8,10%
- G% [9]: 66,77%
- Mean G% - G% [10]: -11,85%
- G% [10]: 86,72%
- IC50 [11]: 7.97 ± 0.65 µM
- Mean G% - G% [12]: -25,43%
- G% [12]: 100,30%
- Mean G% - G% [13]: 22,87%
- G% [13]: 52,00%
- Mean G% - G% [14]: 10,06%
- G% [14]: 64,81%
- Mean G% - G% [15]: -0,17%
- G% [15]: 75,04%
- Mean G% - G% [16]: 2,63%
- G% [16]: 72,24%
- Mean G% - G% [17]: 23,74%
- G% [17]: 51,13%
- Mean G% - G% [18]: 4,18%
- G% [18]: 70,69%
- Mean G% (mean growth over the panel) [19]: 74.87%
- Mean G% - G% [20]: -10,58%
- G% [20]: 85,45%
- Mean G% - G% [21]: -18,67%
- G% [21]: 93,54%
- Mean G% - G% [22]: 24,29%
- G% [22]: 50,58%

Compound: C[C@@H]1NC(c2ccc(Br)cc2)=Nc2nc3ccccn3c2C1=O [JMV5038]
- Mean G% - G% [1]: 22,48%
- G% [1]: 31,76%
- Mean G% - G% [3]: -14,80%
- G% [3]: 69,04%
- Mean G% - G% [4]: -28,38%
- G% [4]: 82,62%
- Mean G% - G% [5]: -55,42%
- G% [5]: 109,66%
- Mean G% - G% [6]: -5,24%
- G% [6]: 59,48%
- Mean G% - G% [7]: 23,49%
- G% [7]: 30,75%
- Mean G% - G% [8]: 22,34%
- G% [8]: 31,90%
- Mean G% - G% [9]: -0,42%
- G% [9]: 54,66%
- Mean G% - G% [10]: 4,92%
- G% [10]: 49,32%
- IC50 [11]: 2.1 ± 0.42 µM
- Mean G% - G% [12]: 27,91%
- G% [12]: 26,33%
- Mean G% - G% [13]: -7,77%
- G% [13]: 62,01%
- Mean G% - G% [14]: -19,71%
- G% [14]: 73,95%
- Mean G% - G% [15]: 67,26%
- G% [15]: -13,02%
- Mean G% - G% [16]: -14,04%
- G% [16]: 68,28%
- Mean G% - G% [17]: -1,60%
- G% [17]: 55,84%
- Mean G% - G% [18]: 54,74%
- G% [18]: -0,50%
- Mean G% - G% [23]: -13,94%
- G% ([23]; growth vs untreated control): 68,18%
- Mean G% (mean growth over the panel) [19]: 54,24%
- Mean G% - G% [20]: 36,72%
- G% [20]: 17,52%
- Mean G% - G% [21]: 1,80%
- G% [21]: 52,44%
- Mean G% - G% [22]: 33,29%
- G% [22]: 20,95%
